The values that follow are results of earlier work, collected in patent publication US20080064694A1, “Multi-Phase Release Methscopolamine Compositions” (Auriga Laboratories, Inc., priority 2006, published 2008).

For this data set the following is noted: following administration of methscopolamine bromide.

Entries after “also recorded” stand apart in the source; their conditions may differ.

With “[7(S)-( 1α, 2β, 4β, 5α, 7β)]-7-(3-hydroxy-1oxo-2-phenylpropoxy)-9,9-dimethyl-3-Oxo-9-azoniatricyclo[3.3.1.0]nonane [Methscopolamine bromide]”, the adverse reactions observed entry is “Tachycardia, palpitation; also recorded: Severe allergic reaction or drug idiosyncrasies including anaphylaxis; also recorded: Headaches, nervousness, mental confusion, drowsiness, dizziness; also recorded: Blurred vision, dilation of the pupil, cycloplegia, increased ocular tension, loss of taste; also recorded: Urinary hesitancy and retention; also recorded: Nausea, vomiting, constipation, bloated feeling; also recorded: Decreased sweating, urticaria and other dermal manifestations; also recorded: Xerostomia, weakness, insomnia, impotence, suppression of lactation”.
